Reference: patent EP4640676A1, “CRYSTAL FORM OF FLUORINE-SUBSTITUTED INDAZOLE COMPOUND AND USE THEREOF” (Sunshine Lake Pharma Co., Ltd., priority 2022, dated 2024)

What was measured:
[1] = Crystal form transformation (polymorphic transition); type: physicochemical; conditions: for crystal form transformation: in solvents such as ethanol
[2] = Pharmacokinetics test, oral capsules; type: in vivo; conditions: male Beagle dogs, 5 mg/kg, figures not given
Experimental: Male Beagle dogs of 8-12 kg were divided into 3 groups, 3 dogs in each group, and capsules containing test samples were orally administered at a dose of 5 mg/kg, and blood was collected at time points of 0.25, 0.5, 1.0, 2.0, 4.0, 6.0, 8.0 and 24 h. Standard curve was plotted based on concentrations of the samples in a suitable range, the concentration of the test sample in the plasma sample was measured and quantified by AB SCIEX API4000-type LC-MS / MS at MRM mode. Pharmacokinetic parameters were calculated according to drug concentration -time curve using a noncompartmental method by WinNonLin 6.3 software.

[3] = High-temperature stability test; type: physicochemical; conditions: for Outward: colour
Experimental: (§1) • (1) High-Temperature Test: Place an appropriate amount of the test sample in a flat weighing bottle, spreading it into a thin layer ≤5 mm thick. Store at 60°C ± 2°C for 30 days. Collect samples at 0, 5, 10, and 30 days for analysis according to the key stability test items. Observe any color changes and determine purity by HPLC. • (2) High-Humidity Test: Place an appropriate amount of the test sample from one batch in a flat weighing bottle, spreading it into a thin layer ≤5 mm thick. Store at 25°C and 90% ± 5% relative humidity (RH) for 30 days. Collect samples at 0, 5, 10, and 30 days for analysis according to the key stability test items. Observe any color changes and determine purity by HPLC. • (3) Light-Exposure Test: Expose the sample to visible light (4500 lx ± 500 lx) and UV light (energy ≥0.7 W·h/m^2) for 30 days. Collect samples at 0, 5, 10, 15, and 30 days for analysis according to the key stability test items. Observe any color changes and determine purity by HPLC. • (4) Accelerated Test: Package an appropriate amount of the test sample from one batch in single-layer PE with aluminum foil. Store at 40°C ± 2°C / 75% ± 5% RH for […]. Collect samples at 0, 1, 2, 3, and 6 months for analysis according to the key stability test items. Observe any color changes and determine purity by HPLC.

[4] = Hygroscopicity test by dynamic vapor sorption (DVS); type: physicochemical
Experimental: The hygroscopicity of the present invention was determined using a DVS INT-Std dynamic vapor and gas sorption analyzer from Surface Measurement Systems Ltd. (UK) with the following parameters: humidity test range: 0%-95%, gas flow: 200 mL/min, temperature: 25°C, test points: one measurement point every 5% humidity increase.
An appropriate amount of the test sample was taken, and its hygroscopicity was measured using a dynamic vapor sorption (DVS) instrument. The classification criteria for hygroscopicity characteristics and moisture absorption weight gain (as per Appendix 9103 "Guidelines for Hygroscopicity Testing of Drugs" from the Chinese Pharmacopoeia 2020 Edition, test conditions: 25°C ± 1°C, 80% ± 2% relative humidity (RH)) are described in Table 3 below: Table 3 The description of the hygroscopicity feature and the definition of the hygroscopicity gain

[5] = Accelerated stability test; type: physicochemical; conditions: 40°C ± 2°C / 75% ± 5% RH; for Outward: colour
Experimental: as §1

[6] = Light-exposure stability test; type: physicochemical; conditions: 30 day; for Outward: colour
Experimental: as §1

[7] = High-humidity stability test; type: physicochemical; conditions: 25°C, 90% ± 5% RH, 30 day; for Outward: colour
Experimental: as §1

Solubility test (HPLC) = type: physicochemical; conditions: figures not given
Experimental: The solubility of the present invention was determined using an Agilent 1200 High Performance Liquid Chromatograph DAD/VWD detector with an Agilent XDB-C18 model (4.6 x 50 mm, 5 µm). Detection wavelength of 266 nm, flow rate of 1.0 mL/min, the column temperature of 35 °C, mobile phase A: acetonitrile - 0.01 M ammonium acetate = 10:90 (V: V) analysis methods: acetonitrile - mobile phase A= 70:30 (V: V), running time: 10 minutes.

[8] = Accelerated stability test; type: physicochemical; conditions: 40°C ± 2°C / 75% ± 5% RH, 6 month
[9] = 0 day, common start value of the high-temperature, high-humidity and light-exposure tests, HPLC
[10] = 0 day, common start value of the three tests
[11] = High-Temperature, 60°C ± 2°C, 30 day

COC(=O)Nc1c(N)nc(-c2nn(Cc3ccccc3F)c3c(F)cccc23)nc1N [Crystal Form I, methyl (4,6-diamino-2-(7-fluoro-1-(2-fluorobenzyl)-1H-indazol-3-yl)pyrimidin-5-yl)carbamate]
crystal form transformation [1]: transform into Crystal form II

COC(=O)Nc1c(N)nc(-c2nn(Cc3ccccc3F)c3c(F)cccc23)nc1N [Crystal Form II, methyl (4,6-diamino-2-(7-fluoro-1-(2-fluorobenzyl)-1H-indazol-3-yl)pyrimidin-5-yl)carbamate]
pharmacokinetic properties [2]: excellent pharmacokinetic properties
Purity (%) [3, 9]: 99.97%
Outward [3, 10]: Off-white
Outward [3, 11]: Off-white
stability ([3]; conclusion over various storage conditions (high-temperature, high-humidity, light-exposure and accelerated tests)): excellent stability
remaining at 720 h ([3]; solid storage, High-Temperature, 60°C ± 2°C, 30 day, HPLC, read-out: Purity (%)): 99.9%
Weight Gain at 60% RH (%) ([4]; DVS, 25°C, 60% RH): 0.02%
Weight Gain at 80% RH (%) ([4]; DVS, 25°C, 80% RH): 0.05%
Weight Gain at 95% RH (%) ([4]; DVS, 25°C, 95% RH): 0.18%
the hygroscopicity feature ([4]; classification per Chinese Pharmacopoeia 2020, 25°C ± 1°C, 80% ± 2% RH): no or negligible hygroscopicity
deliquescence ([4]; under high humidity conditions): not prone to deliquescence
Purity (%) ([5]; 0 day): 99.96%
Outward ([5]; 0 day): Off-white
Outward ([5]; 1 month): Off-white
Outward ([5]; 2 month): Off-white
Outward ([5]; 3 month): Off-white
remaining at 720 h ([5]; solid storage, 75% rh, 1 month, read-out: Purity (%)): 100%
remaining at 1440 h ([5]; solid storage, 75% rh, 2 month, read-out: Purity (%)): 100%
remaining at 2160 h ([5]; solid storage, 75% rh, 3 month, read-out: Purity (%)): 100%
Outward [6]: Pale yellow
remaining at 720 h ([6]; solid storage, light exposure, visible light 4500 lx ± 500 lx and UV light, HPLC, read-out: Purity (%)): 99.9%
Outward [7]: Off-white
remaining at 720 h ([7]; solid storage, 90% rh, HPLC, read-out: Purity (%)): 100%
solubility (Solubility test (HPLC)): good solubility
Outward ([8]; colour): Off-white
remaining at 4320 h ([8]; solid storage, 75% rh, read-out: Purity (%)): 99.9%
stability of the crystal structure ([1]; in contrast to the other crystal forms): less prone to polymorphic transition

COC(=O)Nc1c(N)nc(-c2nn(Cc3ccccc3F)c3c(F)cccc23)nc1N [Crystal Form V, methyl (4,6-diamino-2-(7-fluoro-1-(2-fluorobenzyl)-1H-indazol-3-yl)pyrimidin-5-yl)carbamate]
Purity (%) [3, 9]: 99.52%
Outward [3, 10]: Off-white
Purity (%) ([3]; High-Temperature, 60°C ± 2°C, 30 day, HPLC, 43200 min): 99.47%
Outward [3, 11]: Off-white
Outward [6]: Pale yellow
Purity (%) ([6]; visible light 4500 lx ± 500 lx and UV light, HPLC, 43200 min): 99.36%
Purity (%) ([7]; HPLC, 43200 min): 99.51%
Outward [7]: Off-white
crystal form transformation [1]: transform into Crystal form II
polymorphic transition ([1]; under high temperature conditions): undergoes polymorphic transition
